Test results taken from US9232792B2, “Method for promoting plant growth” (SUMITOMO CHEMICAL COMPANY, LIMITED, priority 2011, dated 2016).

Legend:
Type in all cases: in vivo
[1] = test system: Rice (cultivar: Nipponbare); test: Test Example 3: promotion of root growth in hydroponics of rice; conditions: 1 ppm in hydroponic solution; 3 days germination + 3 days cultivation
Experimental: (§1) Rice (cultivar: Nipponbare)
(§2) DMSO solutions containing each of the present compounds 4 to 8 at 10,000 ppm were prepared. A 1/10,000 volume of each DMSO solution containing each of the present compounds 4 to 8 at 10,000 ppm was added to a Hoagland solution for hydroponics at ¼ concentration (Hoagland and Arnon, California Agricultural Experiment Station 1950 Circular 347 pp. 34) to obtain a solution for hydroponics containing each of the present compounds 4 to 8 at 1 ppm. These solutions were used in the treated-group.
(§3) In a non-treated group, a solution for hydroponics obtained by adding a Hoagland solution for hydroponics at ¼ concentration to a 1/10,000 volume of DMSO was used.
(§4) The rice seeds were immersed in an aqueous solution of 1% sodium hypochlorite for 10 minutes, followed by 70% ethanol solution to sterilize their surfaces. After that, the seeds were washed with distilled water. The sterilized seeds were immersed in each solution for hydroponics containing the test compound at the given concentration, and incubated at a temperature of 28° C. for 3 days under dark conditions to stimulate the germination of the seeds.
(§5) Then, 30 ml of each solution for hydroponics containing the test compound at the given concentration was dispensed into a plastic tube (20 mm in diameter×113 mm in height) covered with a cardboard on the lateral surface for blocking a light. A float made of a styrene board and a vinyl mesh was placed on the water surface of each solution for hydroponics, and the rice seeds obtained after the stimulation of germination were placed on the float. The seeds were cultivated for 3 days under the conditions of an illuminance of 4,000 lux at the top of the tube, a temperature of 26° C., a humidity of 50%, and a day length of 16 hours.
The root length of the rice seedlings obtained after the cultivation was measured by using WinRHIZO system (manufactured by REGENT INSTRUMENTS). The average value of the root length in the treated group was calculated from the measurement values of 4 or 5 individuals. As a result, the root length in the treated group, wherein the plants were treated with the present compound 4, 5, 6, 7 or 8 (at a concentration of 1 ppm in each case), was much longer than that in the non-treated group.

[2] = test system: Rice (cultivar: Nipponbare); test: Test Example 1: promotion of root growth in hydroponics of rice; conditions: 1 ppm in hydroponic solution; 3 days germination + 3 days cultivation
Experimental: as §1
as §2, with “compounds 1” for “compounds 4”, “to 3” for “to 8”
as §3, §4, §5
The root length of the rice seedlings obtained after the cultivation was measured by using WinRHIZO system (manufactured by REGENT INSTRUMENTS). The average value of the root length in the treated group was calculated from the measurement values of 4 or 5 individuals. […]

[3] = test system: Tobacco (Nicotiana benthamiana); test: Test Example 4: reduction of low-temperature stress in hydroponics of tobacco; conditions: 10 ppm in medium; 1.5±1.0° C. for 7 days, then 3 days at 22° C.
Experimental: Tobacco (Nicotiana benthamiana)
DMSO solutions containing each of the present compounds 1 to 4 at a concentration of 10,000 ppm were prepared. A 1/1,000 volume of each DMSO solution was added to a Murashige-and-Skoog medium (a medium containing 2.3 g of a mixture of salts for Murashige-and-Skoog medium (manufactured by Wako. Pure Chemical Industries, Ltd.), 200 mg of myoinositol (manufactured by Sigma-Aldrich), 2 mg of nicotinic acid (manufactured by Wako Pure Chemical Industries, Ltd.), 2 mg of pyridoxine hydrochloride (manufactured by Wako Pure Chemical Industries, Ltd.), 20 mg of thiamine hydrochloride (manufactured by Wako Pure Chemical Industries, Ltd.), 20 g of sucrose (manufactured by Wako Pure Chemical Industries, Ltd.), 1 g of MES (manufactured by DOJINDO LABORATORIES) in 1 L of water, adjusted to pH 5.8) at ½ concentration to obtain a medium containing the test compound at a concentration of 10 ppm. These media were used in the treated-group.
In a non-treated group, a medium obtained by adding a 1/1,000 volume of DMSO to a Murashige-and-Skoog medium at ½ concentration was used.
The seeds of tobacco (Nicotiana benthamiana) were sown on 5 μL of the medium, and incubated at 22° C. overnight. Thereto was added 45 μL of a medium containing each present compound at a concentration of 10 ppm, and cultivated for 7 days under the conditions of an illuminance of 4,000 lux, a temperature of 22° C. and a day length of 16 hours, thereby treating the seedlings of tobacco (Nicotiana benthamiana) with the test compound.
In the non-treated group, 45 μL of a medium obtained by adding a 1/1,000 volume of DMSO to a Murashige-and-Skoog medium at ½ concentration was added, and treated in the same manner as above.
The seedlings of tobacco (Nicotiana benthamiana) treated with the present compounds were cultivated for 7 days under the conditions of an illuminance of 2,000 lux, a temperature of 1.5±1.0° C., and a day length of 16 hours, thereby subjecting to low-temperature stress treatment.
The plants of tobacco (Nicotiana benthamiana) subjected to low-temperature stress treatment was cultivated for 3 days under the conditions of an illuminance of 4,000 lux, a temperature of 22° C., and a day length of 16 hours, and then the green leaf area of the plants was visually evaluated. Completely dead plant was scored as 0, the plant without low-temperature stress treatment was scored as 5, the green area was rated on a 6-point scale in ⅕ increments, and the score of not less than 1 was regarded as effective in reducing the stress. As a result of visual evaluation, the green leaf area of plants in the treated group, wherein the plants were treated with the present compound 1, 2, 3 or 4 was much larger than that in the non-treated group.

| Compound | root length of the rice seedlings vs non-treated group [1] | root length of the rice seedlings vs non-treated group [2] | green leaf area of plants (visual evaluation) vs non-treated group [3] |
| --- | --- | --- | --- |
| CC(C)N.O=C(O)c1cc2cc(C(F)(F)F)ccc2s1 [The present compound 7, isopropylammonium 5-(trifluoromethyl)benzo[b]thiophene-2-carboxylate] | much longer |  |  |
| O=C([O-])c1cc2cc(C(F)(F)F)ccc2s1.[Na+] [The present compound 5, sodium 5-(trifluoromethyl)benzo[b]thiophene-2-carboxylate] | much longer |  |  |
| O=C(O)c1cc2c(C(F)(F)F)cccc2s1 [The present compound 3, 4-(trifluoromethyl)benzo[b]thiophene-2-carboxylic acid] |  | much longer | much larger |
| O=C([O-])c1cc2cc(C(F)(F)F)ccc2s1.[K+] [The present compound 6, potassium 5-(trifluoromethyl)benzo[b]thiophene-2-carboxylate] | much longer |  |  |
| O=C(O)c1cc2ccc(C(F)(F)F)cc2s1 [The present compound 2, 6-(trifluoromethyl)benzo[b]thiophene-2-carboxylic acid] |  | much longer | much larger |
| laurylammonium 5-(trifluoromethyl)benzo[b]thiophene-2-carboxylate [The present compound 8] | much longer |  |  |
| O=C(O)c1cc2cccc(C(F)(F)F)c2s1 [The present compound 4, 7-(trifluoromethyl)benzo[b]thiophene-2-carboxylic acid] | much longer |  | much larger |
